Laboratory results: PubChem BioAssay AID1259408 (Genetic Toxicology Data Bank (GENE-TOX), 2018)
Activity calls are given as the source filed them. How the calls were made is not given here.

Tested on: GENE-TOX genotoxicity assays, various organisms and cells
Assay: GENE-TOX mutagenicity studies
Conditions: for call: Assay Type: In vivo carcinogenicity studies
[1] = Species/Cell Type: Chinese hamster ovary (CHO) cells, Assay Type: Forward gene mutation at the HPRT locus, Assay Code: CHOT, Evaluation Type: Evaluation B (Post-1980)
[2] = Species/Cell Type: Nonhuman, Assay Type: Sister-chromatid exchange (SCE) in vitro, Assay Code: SC2T, Evaluation Type: Evaluation B (Post-1980)
[3] = Species/Cell Type: Bacillus subtilis (H17 vs M45), Assay Type: Rec-assay, spot test, DNA effects (bacterial DNA repair), Assay Code: REW+, Evaluation Type: Evaluation A (Pre-1980)
[4] = Species/Cell Type: Nonhuman, Assay Code: CCG+, Evaluation Type: Evaluation A (Pre-1980)
[5] = Species/Cell Type: Human lymphocytes, Assay Type: Sister-chromatid exchange (SCE) in vitro, Assay Code: SCLT, Evaluation Type: Evaluation B (Post-1980)
[6] = Species/Cell Type: Human, Assay Type: Sister-chromatid exchange (SCE) in vitro, Assay Code: SC1T, Evaluation Type: Evaluation B (Post-1980)
[7] = Species/Cell Type: Salmonella typhimurium (one or more of the five standard strains: TA98, TA100, TA1535, TA1537, and TA1538), Assay Type: Histidine reverse gene mutation, Ames assay, Assay Code: SALT, Evaluation Type: Evaluation A (Pre-1980)
[8] = Species/Cell Type: Escherichia coli polA (W3119 vs P3478), Assay Type: Rec-assay, DNA effects (bacterial DNA repair), Assay Code: RE1+, Evaluation Type: Evaluation A (Pre-1980)
[9] = Species/Cell Type: Saccharomyces cerevisiae, Assay Type: Mitotic recombination or gene conversion, Assay Code: YEC+, Evaluation Type: Evaluation A (Pre-1980)
[10] = Species/Cell Type: Saccharomyces cerevisiae, Assay Type: Mitotic recombination or gene conversion, Assay Code: YEH+, Evaluation Type: Evaluation A (Pre-1980)
[11] = Species/Cell Type: Nonhuman, Assay Code: CCGT, Evaluation Type: Evaluation A (Pre-1980)
[12] = Species/Cell Type: Salmonella typhimurium (one or more of the five standard strains: TA98, TA100, TA1535, TA1537, and TA1538), Assay Type: Histidine reverse gene mutation, Ames assay, Assay Code: SAL+*, Activation: With metabolic activation, Evaluation Type: Evaluation A (Pre-1980)
[13] = Species/Cell Type: Drosophila melanogaster, Assay Type: Sex-linked recessive lethal gene mutation, Assay Code: SRL+, Evaluation Type: Evaluation A (Pre-1980)
[14] = Species/Cell Type: Bacillus subtilis (H17 vs M45), Assay Type: Rec-assay, spot test, DNA effects (bacterial DNA repair), Assay Code: REW-, Evaluation Type: Evaluation A (Pre-1980)
[15] = Species/Cell Type: Neurospora crassa, Assay Type: Forward gene mutation, Assay Code: NEF+, Evaluation Type: Evaluation A (Pre-1980)
[16] = Species/Cell Type: Human lymphocytes, Assay Type: Sister-chromatid exchange (SCE) in vitro, Assay Code: SCL+, Evaluation Type: Evaluation B (Post-1980)
[17] = Species/Cell Type: Human, Assay Type: Sister-chromatid exchange (SCE) in vitro, Assay Code: SC1+, Evaluation Type: Evaluation B (Post-1980)

CS(=O)(=O)OCCO
mutagenic call (Species/Cell Type: Arabidopsis species, Assay Type: Gene mutation, Assay Code: ARM+D, Dose Response: With dose response, Evaluation Type: Evaluation A (Pre-1980)): active; positive | mutagenic call (Species/Cell Type: Hordeum vulgare (barley), Assay Type: Chromosome aberrations, Assay Code: HOC+D, Dose Response: With dose response, Evaluation Type: Evaluation A (Pre-1980)): active; positive

CC(=O)[O-].CC(=O)[O-].CC(=O)[O-].[Cr+3]
mutagenic call [1]: no conclusion | mutagenic call [2]: no conclusion

ClC(Cl)(Cl)c1ccccc1
mutagenic call [3]: active; positive | call [4]: active; positive

C#CC(C)N(C(=O)CCl)c1ccccc1 (stereo not given)
mutagenic call (Species/Cell Type: Saccharomyces cerevisiae, Assay Type: Mitotic recombination or gene conversion, Assay Code: YEC-, Evaluation Type: Evaluation A (Pre-1980)): inactive; negative

NC(=O)N1c2ccccc2C=Cc2ccccc21
mutagenic call [5]: no conclusion | mutagenic call [6]: no conclusion | mutagenic call [7]: no conclusion

CC(C)(C)N1CC1
mutagenic call (Species/Cell Type: Schizosaccharomyces pombe, Assay Type: Reverse gene mutation, Assay Code: YEZ+, Evaluation Type: Evaluation A (Pre-1980)): active; positive

O=[N+]([O-])c1ccc(F)c([N+](=O)[O-])c1
mutagenic call [8]: active; positive | mutagenic call (Species/Cell Type: Nonhuman, Assay Type: Sister-chromatid exchange (SCE) in vitro, Assay Code: SC2-, Evaluation Type: Evaluation B (Post-1980)): inactive; negative | mutagenic call (Species/Cell Type: Saccharomyces cerevisiae, Assay Type: Forward gene mutation, Assay Code: YEF+, Evaluation Type: Evaluation A (Pre-1980)): active; positive | mutagenic call [9]: active; positive | mutagenic call [10]: active; positive

CC(=O)OCCN(CCOC(C)=O)N=O
mutagenic call (Species/Cell Type: Mammalian polychromatic erythrocytes, Assay Type: Micronucleus test, chromosome aberrations, Assay Code: MNTT, Evaluation Type: Evaluation B (Post-1980)): no conclusion

O=BOO
mutagenic call [8]: active; positive

Cc1c2c(c(CO)c3ccc4ccccc4c13)C=C[C@H](O)[C@H]2O
call [11]: no conclusion

CC[C@@]1(O)C[C@H](O[C@H]2C[C@H](N)[C@H](O)[C@H](C)O2)c2c(cc3c(c2O)C(=O)c2c(O)cccc2C3=O)[C@H]1C(=O)OC
mutagenic call [12]: active; positive

CN1CCN(CC(=O)NN)CC1
mutagenic call (Species/Cell Type: Escherichia coli WP2, Assay Type: Tryptophan reverse gene mutation, Assay Code: WP2-, Evaluation Type: Evaluation A (Pre-1980)): inactive; negative | mutagenic call (Species/Cell Type: Saccharomyces cerevisiae, Assay Type: Mitotic recombination or gene conversion, Assay Code: YEC-*, Activation: With metabolic activation, Evaluation Type: Evaluation A (Pre-1980)): inactive; negative

Cc1cc2c(c3ccc4ccccc4c13)C(=O)CC2
mutagenic call [12]: active; positive

O=c1cc[nH]c2ccccc12
mutagenic call (Species/Cell Type: Salmonella typhimurium (one or more of the five standard strains: TA98, TA100, TA1535, TA1537, and TA1538), Assay Type: Histidine reverse gene mutation, Ames assay, Assay Code: SAL-, Evaluation Type: Evaluation A (Pre-1980)): inactive; negative

Nc1ccc(S(N)(=O)=O)cc1
mutagenic call (Species/Cell Type: Aspergillus nidulans, Assay Type: Aneuploidy, chromosome aberrations, Assay Code: ASN-, Evaluation Type: Evaluation A (Pre-1980)): inactive; negative | mutagenic call (Species/Cell Type: Aspergillus nidulans, Assay Type: Mitotic recombination, Assay Code: ASG+, Evaluation Type: Evaluation A (Pre-1980)): active; positive | mutagenic call (Species/Cell Type: Neurospora crassa, Assay Type: Aneuploidy, chromosome aberrations, Assay Code: NEN-, Evaluation Type: Evaluation A (Pre-1980)): inactive; negative | call [11]: no conclusion

CCC1=C(O)C(=O)CC1
mutagenic call [5]: no conclusion | mutagenic call [6]: no conclusion

COC(C)C(O)(C(=O)OCC1=CC[N+]2([O-])CC[C@H](O)[C@H]12)C(C)C (stereo not given in full)
mutagenic call [13]: active; positive

CC(=O)[O-].[Tl+]
mutagenic call (Species/Cell Type: Syrian hamster embryo (SA7/SHE) cells, Assay Type: Cell transformation, viral enhanced, Assay Code: CT7+, Evaluation Type: Evaluation A (Pre-1980)): active; positive

[Cl-].[Cl-].[NH2-].[NH2-].[NH2-].[NH2-].[Pt+2]
mutagenic call [1]: no conclusion

CC(=O)Nc1ccc(N=Nc2cc(C)ccc2O)cc1
call [4]: active; positive

[Cl][Pb][Cl]
mutagenic call [14]: inactive; negative

C/C=C/C#CC#CC#C/C=C/C(O)CO (stereo not given)
mutagenic call [2]: no conclusion

CC1CN1P(=O)(N1CC1C)N1CC1C (stereo not given)
mutagenic call [13]: active; positive | mutagenic call (Species/Cell Type: F1 mouse, Sex: Male, Assay Type: Sperm morphology, Assay Code: SPFT, Evaluation Type: Evaluation A (Pre-1980)): no conclusion | mutagenic call (Species/Cell Type: Hordeum vulgare (barley), Assay Type: Chromosome aberrations, Assay Code: HOC+, Evaluation Type: Evaluation A (Pre-1980)): active; positive | mutagenic call (Species/Cell Type: Mammalian polychromatic erythrocytes, Assay Type: Micronucleus test, chromosome aberrations, Assay Code: MNT+, Evaluation Type: Evaluation A (Pre-1980)): active; positive | mutagenic call (Species/Cell Type: Mouse, Sex: Male, Assay Type: Sperm morphology, Assay Code: SPI+, Evaluation Type: Evaluation A (Pre-1980)): active; positive | mutagenic call [15]: active; positive | mutagenic call (Species/Cell Type: Nonhuman bone marrow, Assay Type: Chromosome aberrations, in vivo, Assay Code: CY#+, Evaluation Type: Evaluation A (Pre-1980)): active; positive | call [11]: no conclusion | mutagenic call (Species/Cell Type: Rodents, Sex: Male, Assay Type: Dominant lethal test, Assay Code: DLT+, Evaluation Type: Evaluation A (Pre-1980)): active; positive | mutagenic call (Species/Cell Type: Vicia faba, Assay Type: Chromosome aberrations, Assay Code: VIC+D, Dose Response: With dose response, Evaluation Type: Evaluation A (Pre-1980)): active; positive

CNP(=O)(N1CC1)N1CC1
mutagenic call [13]: active; positive

CC[C@@]1(O)C[C@H](O[C@H]2C[C@H](N(C)C)[C@H](O[C@H]3C[C@H](O)[C@H](O[C@H]4CCC(=O)[C@H](C)O4)[C@H](C)O3)[C@H](C)O2)c2c(cc3c(c2O)C(=O)c2c(O)cccc2C3=O)[C@H]1C(=O)OC
mutagenic call [7]: no conclusion

Nc1ccc(/C=C/c2ccc([N+](=O)[O-])o2)nn1
mutagenic call (Species/Cell Type: Glycine max (soybean), Assay Type: Gene mutation, Assay Code: GLM+, Evaluation Type: Evaluation A (Pre-1980)): active; positive | mutagenic call [16]: active; positive | mutagenic call (Species/Cell Type: Human lymphocytes, Assay Type: Sister-chromatid exchange (SCE) in vitro, Assay Code: SCL+D, Dose Response: With dose response, Evaluation Type: Evaluation A (Pre-1980)): active; positive | mutagenic call [17]: active; positive | mutagenic call (Species/Cell Type: Human, Assay Type: Sister-chromatid exchange (SCE) in vitro, Assay Code: SC1+D, Dose Response: With dose response, Evaluation Type: Evaluation A (Pre-1980)): active; positive | mutagenic call (Species/Cell Type: Saccharomyces cerevisiae, Assay Type: Forward and reverse gene mutation, mitotic recombination and gene conversion, DNA effects, body fluid assay, Assay Code: BFC+, Evaluation Type: Evaluation A (Pre-1980)): active; positive | mutagenic call (Species/Cell Type: Saccharomyces cerevisiae, Assay Type: Forward and reverse gene mutation, mitotic recombination and gene conversion, host-mediated assay, Assay Code: HME-, Evaluation Type: Evaluation A (Pre-1980)): inactive; negative | mutagenic call [9]: active; positive | mutagenic call [10]: active; positive

O=C1C(N2CC2)=C(N2CC2)C(=O)C(N2CC2)=C1N1CC1
mutagenic call (Species/Cell Type: Drosophila melanogaster, Assay Type: Aneuploidy, partial sex chromosome loss, chromosome aberrations, Assay Code: DAPT, Evaluation Type: Evaluation A (Pre-1980)): no conclusion | mutagenic call (Species/Cell Type: Drosophila melanogaster, Assay Type: Aneuploidy, whole sex chromosome loss, chromosome aberrations, Assay Code: DAC+M, Evaluation Type: Evaluation A (Pre-1980)): active; positive | mutagenic call [13]: active; positive | mutagenic call [15]: active; positive | mutagenic call (Species/Cell Type: Neurospora crassa, Assay Type: Reverse gene mutation, Assay Code: NER+, Evaluation Type: Evaluation A (Pre-1980)): active; positive

[CH3][Hg][Cl]
mutagenic call [3]: active; positive | mutagenic call [16]: active; positive | mutagenic call [17]: active; positive | mutagenic call (Species/Cell Type: Nonhuman, Assay Type: Sister-chromatid exchange (SCE) in vivo, Assay Code: SC3T, Evaluation Type: Evaluation B (Post-1980)): no conclusion | mutagenic call (Species/Cell Type: Rodents, Sex: Male, Assay Type: Dominant lethal test, Assay Code: DLT-, Evaluation Type: Evaluation A (Pre-1980)): inactive; negative

CC(C)C[C@H](NP(=O)(O)O[C@@H]1O[C@@H](C)[C@H](O)[C@@H](O)[C@H]1O)C(=O)N[C@@H](Cc1c[nH]c2ccccc12)C(=O)O
mutagenic call [6]: no conclusion

CC(=O)C=O
mutagenic call (Species/Cell Type: Nonhuman, Assay Type: Sister-chromatid exchange (SCE) in vitro, Assay Code: SC2+D, Dose Response: With dose response, Evaluation Type: Evaluation B (Post-1980)): active; positive

O=C1C=CCO1
mutagenic call [14]: inactive; negative
